Test results from patent US10925858B2, “S-nitrosoglutathione (GSNO) and GSNO reductase inhibitors for use in therapy” (MUSC FOUNDATION FOR RESEARCH DEVELOPMENT, priority 2017, dated 2021).

What was measured:
[1] = system: intracellular Ca^2+ ([Ca^2+]i) influx; assay: Assay for intracellular Ca2+ influx in thrombin treated hBMVECs; assay type: cell-based, human; conditions: thrombin 0.1 unit/ml; L-NIO or FeTPPS 10 μM; GSNO or SIN-1 various concentrations
Protocol: Cell culture: Primary human brain microvascular endothelial cells (hBMVECs) were purchased from Angio-Proteomie (Cat #: cAP-0002, Atlanta, Ga.). The cells were cultured in cell culture flasks or plates precoated with Quick Coating Solution (Angio-Proteomie; Cat #: cAP-01) and maintained in Endothelial Growth Medium (Angio-Proteomie; Cat #: cAP-02) at 37° C. under 5% CO2/95% air. When the cells were almost confluent, the medium was replaced with endothelial basal medium (Angio-Proteomie; Cat #: cAP-03) containing 0.5% fetal bovine serum (FBS; Life Technologies, Grand Island, N.Y.) about 8-12 hours before the experiment. No institutional approval was required for this study. The study was not pre-registered. Intracellular Ca^2+ concentration ([Ca^2+]i) was measured with Fluo-4 Direct Calcium Assay Kit (Thermo Fisher Scientific, Cat #: F10471, Grand Island, N.Y.). Briefly, culture medium in the 96-well plate was replaced with a Ca^2+ sensitive dye Fluo-4 in an endothelial basal medium. After 30 min incubation, the dye was removed and cells were incubated with the original medium with or without the drugs at 37° C. for 15 min. Following thrombin treatment, time course changes of fluorescent intensity were quantified using a CLARIOstar multi-well fluorometer (BMG Labtech, Cary, N.C.).

BBB leakage = assay: BBB disruption by Evans blue extravasation in CCI rat model of TBI; assay type: in vivo, Sprague Dawley rats; conditions: 24 hr after TBI; GSNO 0.05 mg/kg i.v. or FeTPPS 3 mg/kg i.v. right after impact
From the text: All animals used in this study received humane care in compliance with the Medical University of South Carolina's (MUSC) guidance and the National Research Council's criteria for humane care. Animal procedures were approved by the institutional animal care and use committee of MUSC (AR #2703). For generation of CCI model of TBI, young adult male (˜3-4 months old) Sprague Dawley rats weighing between 260-300 g were randomly divided into four groups: 1) TBI animals treated with vehicle (TBI; n=13), 2) TBI with GSNO (0.05 mg/kg body weight/i.v.) treatment (TBI+GSNO; n=13), 3) TBI with FeTPPS (3 mg/kg body weight, i.v.) treatment (TBI+FeTPPS; n=13), 4) sham-operated treated with vehicle (Sham; n=13). The group size was determined by power analysis based on our previous data (Khan et al., 2016b; Khan et al., 2009). Ketamine (90 mg/kg body weight) and xylazine (10 mg/kg body weight) as surgical anesthesia were administered intraperitoneally. Analgesic buprenorphine was administered pre-emptively to alleviate pain following surgery. […]
BBB leakage was assessed as previously described from our laboratory (Khan et al., 2016b; Khan et al., 2009). […] The brain tissues were homogenized in 750 μl of N, N-dimethylformamide (DMF) and centrifuged at 10,000×g for 25 minutes, and EB content in supernatant was fluorimetrically analyzed (λex 620 nm, λem 680 nm).

mononuclear cells = assay: H&E staining, spinal cord infiltration of mononuclear cells in EAE mice; assay type: in vivo, C57BL/6 mice; conditions: 1 mg/kg/day
Protocol: Female C57BL/6 mice of 8-12 weeks of age, purchased from Jackson Laboratory, were provided with food and water ad libitum and were kept in pathogen free animal care facility of Medical University of South Carolina (MUSC) throughout the study. All procedures were conducted in accordance with accepted standards of humane care as approved by the Institutional Animal Care and Use Committee (Approved number: AR #1644). EAE was induced as described previously (Nath et al., 2009). Briefly, mice were immunized subcutaneously in the flank regions with MOG35-55 peptide (MOG; 200 μg; Peptide International) emulsified (1:1) in 100 ul complete Freund's adjuvant (CFA) on day 0 and day 7. Additionally, 300 ng of Pertussis toxin (Sigma-Aldrich, St. Louis, Mo.) was given on day 0 and day 2 by i.p. injection. […] Clinical signs of EAE were scored by examiners blinded to experimental treatments using the following scale: 0=no clinical signs of disease; 1=piloerection and sluggish; 2=limp tail (ataxia); 2.5=ataxia with partial hind limb paralysis; 3=full paralysis of hind limb; 3.5=full paralysis of hind limb with paralysis of one fore limb; 4=full paralysis of two limbs; 4.5=moribund stage; 5=death. […]
Tissue samples were embedded in paraffin block and sectioned transversely (5 μm-thick). […] For the quantitation of infiltrates, the digital images were analyzed by ImageJ (NIH, Bethesda, Md.). […]

Cl.O=S(=O)([O-])c1ccc(-c2c3nc(c(-c4ccc(S(=O)(=O)O)cc4)c4ccc([nH]4)c(-c4ccc(S(=O)(=O)O)cc4)c4nc(c(-c5ccc(S(=O)(=O)O)cc5)c5ccc2[nH]5)C=C4)C=C3)cc1.[Fe] [FeTPPS, 5,10,15,20-Tetrakis(4-sulfonatophenyl)porphyrinato Iron (III), Cl, reference compound]
thrombin-induced intracellular Ca2+ influx [1]: had not effect | TBI-induced increase in Evan's blue extravasation (BBB leakage): reduced

N[C@@H](CCC(=O)N[C@@H](CSN=O)C(=O)NCC(=O)O)C(=O)O [GSNO, S-nitrosoglutathione]
spinal cord infiltration of mononuclear cells (mononuclear cells): reduced | thrombin-induced intracellular Ca2+ influx [1]: inhibited | TBI-induced increase in Evan's blue extravasation (BBB leakage): reduced

Cc1cc(C(N)=O)ccc1-n1c(CCC(=O)O)ccc1-c1ccc(-n2ccnc2)cc1 [N6022, reference compound]
spinal cord infiltration of mononuclear cells (mononuclear cells): significantly reduced
